US8076321B2, “Compositions for treatment of systemic mastocytosis” (priority 2005, dated 2011)
Converted amounts (≈) assume the structure as drawn. “And” between values parts separate entries of the source, which are not always exact repeats. Equal values may be shown once. “Also recorded” adds a separate entry of the source. Read-outs that look alike come from different tables or passages of the source.

Columns and labels:
HMC-1.1 cells [1] = assay: cells; details: Homo sapiens, read-out: IC50, 3H-thymidine uptake in HMC-1.1 cells
HMC-1.2 cells [2] = assay: cells; details: Homo sapiens, read-out: IC50, 3H-thymidine uptake in HMC-1.2 cells
[3] = biological target: T1, KIT V560G (HMC-1.1 cells) (Homo sapiens, UniProt P10721, V560G); assay: KIT phosphorylation by immunoprecipitation and Western blotting in HMC-1.1 cells; type: cell-based; details: 1 μM, 4 hours
T1 construct: endogenous in cells; host or cells: HMC-1.1 (subclone of the human mast cell leukemia line HMC-1)
T1 sequence (P10721 26-976 V560G): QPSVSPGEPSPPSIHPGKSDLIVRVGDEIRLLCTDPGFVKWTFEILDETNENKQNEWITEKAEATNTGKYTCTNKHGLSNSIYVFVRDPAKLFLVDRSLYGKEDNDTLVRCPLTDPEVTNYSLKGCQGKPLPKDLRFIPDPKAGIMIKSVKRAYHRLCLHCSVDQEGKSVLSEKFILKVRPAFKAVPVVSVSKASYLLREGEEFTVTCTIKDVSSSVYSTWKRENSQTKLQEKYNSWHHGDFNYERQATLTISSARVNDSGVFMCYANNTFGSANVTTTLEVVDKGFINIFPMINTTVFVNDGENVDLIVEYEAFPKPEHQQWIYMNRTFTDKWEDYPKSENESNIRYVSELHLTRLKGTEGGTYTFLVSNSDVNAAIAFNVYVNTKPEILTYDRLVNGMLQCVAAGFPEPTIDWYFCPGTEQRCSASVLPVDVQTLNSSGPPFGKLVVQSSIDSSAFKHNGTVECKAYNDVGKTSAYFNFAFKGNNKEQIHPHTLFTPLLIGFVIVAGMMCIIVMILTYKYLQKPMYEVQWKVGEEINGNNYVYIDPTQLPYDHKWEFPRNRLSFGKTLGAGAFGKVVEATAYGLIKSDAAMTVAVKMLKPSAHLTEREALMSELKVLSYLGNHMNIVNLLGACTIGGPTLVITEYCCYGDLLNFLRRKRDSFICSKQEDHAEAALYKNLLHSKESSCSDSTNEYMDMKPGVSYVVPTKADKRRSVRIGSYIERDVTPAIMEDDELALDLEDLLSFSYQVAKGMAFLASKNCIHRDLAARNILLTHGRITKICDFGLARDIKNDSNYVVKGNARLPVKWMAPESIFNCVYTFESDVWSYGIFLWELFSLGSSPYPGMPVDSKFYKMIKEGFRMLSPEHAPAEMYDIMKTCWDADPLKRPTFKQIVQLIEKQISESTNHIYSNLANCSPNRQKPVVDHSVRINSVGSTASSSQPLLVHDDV
Description: (§1) In case of Ton.Kit.wt cells, KIT phosphorylation is induced by adding rhSCF (100 ng/ml). Immunoprecipitation (IP) and Western blotting are performed as described previously.^32 In brief, cells are washed at 4° C. and resuspended in RIPA buffer (1 ml buffer per 10^8 cells) consisting of 50 mM Tris, 150 mM sodium chloride (NaCl), 1% nonidet P40 (NP-40), 0.25% deoxycholic acid, 0.1% sodium dodecyl sulfate (SDS), 1 mM ethylene-diamine-tetraacetic acid (EDTA), 1 mM sodium fluoride (NaF), 1 mM phenylmethylsulfonyl fluoride (PMSF) and 1 mM sodium orthovanadate (Na3VO4). After incubation in RIPA buffer supplemented with proteinase inhibitor cocktail (Roche) for 30 minutes at 4° C. (vortexed vigorously every 5 minutes), lysates are centrifuged to remove insoluble particles. For IP, lysates from 1×10^7 cells are incubated with anti-KIT antibody SR1^37 (kindly provided by Dr. V. Broudy, University of Washington, Seattle, Wash.) or with the anti-KIT antibody 1C1^38 (kindly provided by Dr. H.-J. Bühring, University of Tübingen, Germany) and protein G Sepharose beads (Amersham) in IP-buffer (50 mM Tris-Cl, pH 7.4, 150 mM NaCl, 100 mM NaF, and 1% NP40) at 4° C. overnight. Then, beads are washed 3 times in IP buffer. […] Membranes are blocked for 1 hour in 5% blocking reagent (Roche) and are then incubated with anti-KIT antibody 1C1 or with the monoclonal antibody 4G10 (Upstate Biotechnology, Lake Placid, N.Y.) directed against tyrosine-phosphorylated proteins, at 4° C. overnight. Antibody reactivity is made visible by sheep anti-mouse IgG antibody and Lumingen PS-3 detection reagent (both from Amersham), and a CL-Xposure film (Pierce Biotechnology, Rockford, Ill.).
(§2) In case of Ton.Kit.wt cells, KIT phosphorylation was induced by adding rhSCF (100 ng/ml). […]

[4] = biological target: T2, wt KIT (Ton.Kit.wt Ba/F3 cells) (Homo sapiens, UniProt P10721); assay: KIT phosphorylation by immunoprecipitation and Western blotting in Ton.Kit.wt cells; type: cell-based; details: 1 μM, 4 hours; doxycycline, SCF 100 ng/ml
T2 construct: expressed in transfected cells
T2 sequence (P10721 26-976): as the sequence (P10721 26-976 V560G) above, with G535V counted along it
Description: as §1, §2

HMC-1.2 cells [5] = assay: Apoptosis in HMC-1.2 cells (light and electron microscopy, annexin V/PI, Tunel); type: cell-based, human; details: 1 μM, 24 hours
Description: For flow cytometric determination of apoptosis and cell viability, combined annexin V/propidium iodide staining is performed. […] Thereafter, cells are washed in PBS and then are incubated with annexinV-APC (Alexis Biochemicals, Lausen, Switzerland) in binding buffer containing HEPES (10 mM, pH 7.4), NaCl (140 mM), and CaCl2 (2.5 mM). Thereafter, propidium iodide (1 μg/ml) is added. Cells are then washed and analyzed by flow cytometry on a FACSCalibur (Becton Dickinson).

HMC-1.2 cells [6] = assay: Cell surface antigen expression on HMC-1.2 cells by flow cytometry; type: cell-based, human; details: 24 hours
Description: After incubation with drugs, HMC-1 cells are washed and subjected to single color flow cytometry using PE-conjugated antibodies against MC antigens known to be overexpressed on neoplastic MC in SM (compared to normal MC) and/or are expressed at an early stage of mastopoiesis (CD2, CD13, CD63, CD117, CD164, CD203c).^45-47 Flow cytometry is performed on a FACSan (Becton Dickinson) as described previously.^29
Flow cytometry was performed on a FACScan (Becton Dickinson) as described.^30,37,51

HMC-1.1 cells [7] = test system: HMC-1.1 cells
HMC-1.2 cells [8] = test system: HMC-1.2 cells
HMC-1.2 cells [9] = assay: Apoptosis in HMC-1.2 cells (light and electron microscopy, annexin V/PI, Tunel); type: cell-based, human; details: 24 hours; for apoptosis in HMC-1.2 cells by light microscopy: various concentrations
HMC-1.1 cells [10] = assay: Apoptosis in HMC-1.1 cells (light and electron microscopy, Tunel); details: 24 hours; for apoptosis in HMC-1.1 cells by Tunel assay: 1 μM; for apoptosis in HMC-1.1 cells by light microscopy: various concentrations
[11] = test system: Ton.Kit.wt cells (Ba/F3 with inducible wt KIT); assay: cells; details: Mus musculus, BaF3, 48 h, read-out: IC50, SCF-dependent growth of doxycycline-exposed Ton.Kit.wt cells
normal bm cells = assay: 3H-thymidine uptake in normal bone marrow cells (control); type: cell-based, human; details: control sample, not shown
Description: Both patients gave informed consent before bm puncture. The bm aspirate is obtained from the posterior iliac crest and collected in syringes containing preservative-free heparin. Cells are layered over Ficoll to isolate mononuclear cells (MNC).
In select experiments, HMC-1 cells (both subclones) are incubated with various concentrations of IFNα (0.1-500,000 U/ml) or 2CdA (0.005-10 μg/ml).
The bm aspirate samples were collected in syringes containing preservative-free heparin. Cells were layered over Ficoll to isolate mononuclear cells (MNC). […] Both patients gave written informed consent before bm puncture or blood donation. The study was approved by the local institutional review board and was conducted in accordance with the declaration of Helsinki.
Filters were air-dried, and the bound radioactivity was counted in a β-counter (Top-Count NXT, Packard Bioscience). […] All experiments were performed in triplicates.

[12] = Human trials, Maximum Tolerated Dose; type: in vivo
[13] = test system: non-transfected Ba/F3 cells; details: not shown
[14] = 1 μM, dasatinib various concentrations
[15] = PKC412 1 μM, dasatinib various concentrations

| KIT phosphorylation in HMC-1.1 cells [3] | IC50 (HMC-1.1 cells [7]) | IC50 (HMC-1.2 cells [8]) [nM] | IC50 [11] [nM] | SMILES | SCF-induced phosphorylation of KIT in Ton.Kit.wt cells [4] | apoptosis in HMC-1.2 cells by annexinV/propidium iodide flow cytometry and Tunel assay (HMC-1.2 cells [5]) | expression of CD antigens on HMC-1.2 cells (HMC-1.2 cells [6]; 1 μM) | expression of KIT (CD117) on HMC-1.2 cells (HMC-1.2 cells [6]; [14]) | apoptosis in HMC-1.2 cells by light microscopy (HMC-1.2 cells [9]) | apoptosis in HMC-1.1 cells by Tunel assay (HMC-1.1 cells [10]) | apoptosis in HMC-1.1 cells by light microscopy (HMC-1.1 cells [10]) | also measured |
| --- | --- | --- | --- | --- | --- | --- | --- | --- | --- | --- | --- | --- |
| – | – | – | – | Nc1nc(Cl)nc2c1ncn2[C@H]1C[C@H](O)[C@@H](CO)O1 [2CdA, 2-chlorodeoxyadenosine] | – | – | – | – | – | – | – | IC50 (HMC-1.1 cells [1]): 0.1 to 0.3 µg/mL (≈ 0.35 to 1.05 µM); IC50 (HMC-1.2 cells [2]): 0.01 to 0.02 µg/mL (≈ 0.035 to 0.07 µM) |
| reduced KIT phosphorylation | 10 to 30 nM | – | – | Cc1ccc(NC(=O)c2ccc(CN3CCN(C)CC3)cc2)cc1Nc1nccc(-c2cccnc2)n1 [imatinib, reference compound] | decreased the SCF-induced phosphorylation of KIT | showed no effects on HMC-1.2 cells | no significant effects | slight decrease | showed no effects on HMC-1.2 cells | induced apoptosis only in HMC-1.1 cells; also recorded: potent apoptosis-inducing effects only in HMC-1.1 cells | produce apoptosis in HMC-1.1 cells | antiproliferative effect on HMC-1.2 cells (HMC-1.2 cells [8]; 48 hours): no significant antiproliferative effects |
| – | – | 200 to 500 | 1 to 10 | Cc1nc(Nc2ncc(C(=O)Nc3c(C)cccc3Cl)s2)cc(N2CCN(CCO)CC2)n1 [dasatinib, reference compound] | – | – | – | – | – | – | – | – |
| strongly reduced KIT phosphorylation | 3 to 10 nM and 5 to 10 nM | 1000 to 5000 | 30 to 300 | Cc1cn(-c2cc(NC(=O)c3ccc(C)c(Nc4nccc(-c5cccnc5)n4)c3)cc(C(F)(F)F)c2)cn1 [AMN107, 4-Methyl-3-[[4-(3-pyridinyl)-2-pyrimidinyl]amino]-N-[5-(4-methyl-1H-imidazol-1-yl)-3-(trifluoromethyl)phenyl]benzamide] | decreased the SCF-induced phosphorylation of KIT | – | no significant effects | slight decrease | induce apoptosis in both HMC-1 subclones in a dose-dependent manner | potent apoptosis-inducing effects only in HMC-1.1 cells | induce apoptosis in both HMC-1 subclones in a dose-dependent manner | growth-inhibitory effect on control (non-transfected) Ba/F3 cells [13]: neither doxycycline (1 μg/ml), nor the TK inhibitors (imatinib, PKC412, AMN107), showed growth-inhibitory effects |

| SMILES | KIT phosphorylation in HMC-1.1 cells [3] | IC50 (HMC-1.1 cells [7]) | IC50 (HMC-1.2 cells [8]) [nM] | IC50 [11] [nM] | SCF-induced phosphorylation of KIT in Ton.Kit.wt cells [4] | apoptosis in HMC-1.2 cells by annexinV/propidium iodide flow cytometry and Tunel assay (HMC-1.2 cells [5]) | expression of CD antigens on HMC-1.2 cells (HMC-1.2 cells [6]; 1 μM) | expression of KIT (CD117) on HMC-1.2 cells (HMC-1.2 cells [6]; [14]) | apoptosis in HMC-1.2 cells by light microscopy (HMC-1.2 cells [9]) | apoptosis in HMC-1.1 cells by Tunel assay (HMC-1.1 cells [10]) | apoptosis in HMC-1.1 cells by light microscopy (HMC-1.1 cells [10]) | also measured |
| --- | --- | --- | --- | --- | --- | --- | --- | --- | --- | --- | --- | --- |
| CO[C@@H]1[C@H](N(C)C(=O)c2ccccc2)C[C@H]2O[C@]1(C)n1c3ccccc3c3c4c(c5c6ccccc6n2c5c31)C(=O)NC4 [PKC412, N-[(9S,10R,11R,13R)-2,3,10,11,12,13-hexahydro-10-methoxy-9-methyl-1-oxo-9,13-epoxy-1H,9H-diindolo[1,2,3-gh:3′,2′,1′-1m]pyrrolo[3,4-j][1,7]benzodiazonin-11-yl]-N-methylbenzamide] | decreased phosphorylation of KIT | – | – | – | decreased the SCF-induced phosphorylation of KIT | induce apoptosis in HMC-1.2; also recorded: also induced apoptosis in both cell lines; also recorded: produced apoptosis in most HMC-1.1 and HMC-1.2 cells | – | slight decrease | induce apoptosis in both HMC-1 subclones in a dose-dependent manner; also recorded: also found to induce apoptosis in both HMC-1 subclones | also induced apoptosis in both cell lines; also recorded: produced apoptosis in most HMC-1.1 and HMC-1.2 cells | induce apoptosis in both HMC-1 subclones in a dose-dependent manner; also recorded: also found to induce apoptosis in both HMC-1 subclones | effect on 3H-thymidine uptake in normal bm cells (normal bm cells): showed no effect; also recorded: no effects; expression of CD203c on HMC-1.2 cells (HMC-1.2 cells [6]; 1 μM): no significant effects; expression of CD63 on HMC-1.2 cells (HMC-1.2 cells [6]; PKC412 1 μM or various, dasatinib various concentrations): significant decrease; also recorded: dose-dependently decreased expression of CD63; expression of CD2 on HMC-1.2 cells (HMC-1.2 cells [6]; [15]): significant decrease; expression of CD13 on HMC-1.2 cells (HMC-1.2 cells [6]; [15]): no significant effects; expression of CD164 on HMC-1.2 cells (HMC-1.2 cells [6]; [15]): significant decrease; Maximum Tolerated Dose (MTD), total dose [12]: 225 mg/day; apoptosis in HMC-1.2 cells by electron microscopy (HMC-1.2 cells [9]; 1 μM): produce apoptosis in HMC-1.2 cells |
